Experiments:
Details in all cases: PC-3
[1] = target: Rho-associated protein kinase 2 (Homo sapiens) (UniProt O75116); experiment: Inhibition of ROCK2 in human PC3 cell lysates at 10 uM using desthiobiotin-tagged ATP probe AX9989 followed by trypsinization by LC/MS analysis
[2] = target: Mitogen-activated protein kinase 11 (Homo sapiens) (UniProt Q15759); experiment: Inhibition of p38beta in human PC3 cell lysates at 10 uM using desthiobiotin-tagged ATP probe AX9989 followed by trypsinization by LC/MS analysis
[3] = target: Serine/threonine-protein kinase Nek7 (Homo sapiens) (UniProt Q8TDX7); experiment: Inhibition of NEK7 in human PC3 cell lysates at 10 uM using desthiobiotin-tagged ATP probe AX9989 followed by trypsinization by LC/MS analysis
[4] = target: T1, Serine/threonine-protein kinase Nek8 (Homo sapiens) (UniProt Q86SG6); experiment: Inhibition of NEK8 in human PC3 cell lysates at 10 uM using desthiobiotin-tagged ATP probe AX9989 followed by trypsinization by LC/MS analysis
T1 sequence (whole entry): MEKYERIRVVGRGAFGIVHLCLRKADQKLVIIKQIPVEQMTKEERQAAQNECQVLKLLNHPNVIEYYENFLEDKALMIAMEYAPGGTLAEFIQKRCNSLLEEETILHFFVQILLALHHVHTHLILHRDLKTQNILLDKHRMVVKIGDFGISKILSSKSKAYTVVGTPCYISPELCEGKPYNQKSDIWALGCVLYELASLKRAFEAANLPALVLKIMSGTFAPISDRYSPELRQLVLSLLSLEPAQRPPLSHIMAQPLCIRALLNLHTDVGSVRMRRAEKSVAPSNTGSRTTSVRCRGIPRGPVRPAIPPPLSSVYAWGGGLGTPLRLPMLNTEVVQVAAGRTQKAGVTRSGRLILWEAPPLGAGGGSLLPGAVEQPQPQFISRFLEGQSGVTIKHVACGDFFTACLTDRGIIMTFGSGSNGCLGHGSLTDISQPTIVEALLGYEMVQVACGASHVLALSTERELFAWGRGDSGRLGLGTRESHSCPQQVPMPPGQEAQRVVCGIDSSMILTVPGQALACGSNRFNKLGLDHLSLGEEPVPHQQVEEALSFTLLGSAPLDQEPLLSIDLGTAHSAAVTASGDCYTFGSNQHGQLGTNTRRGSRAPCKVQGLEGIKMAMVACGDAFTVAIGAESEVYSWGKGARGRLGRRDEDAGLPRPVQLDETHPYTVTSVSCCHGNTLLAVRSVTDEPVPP

[5] = target: T2, Dual specificity mitogen-activated protein kinase kinase 4 (Homo sapiens) (UniProt P45985); experiment: Inhibition of MAP2K4 in human PC3 cell lysates at 10 uM using desthiobiotin-tagged ATP probe AX9989 followed by trypsinization by LC/MS analysis
T2 sequence (whole entry): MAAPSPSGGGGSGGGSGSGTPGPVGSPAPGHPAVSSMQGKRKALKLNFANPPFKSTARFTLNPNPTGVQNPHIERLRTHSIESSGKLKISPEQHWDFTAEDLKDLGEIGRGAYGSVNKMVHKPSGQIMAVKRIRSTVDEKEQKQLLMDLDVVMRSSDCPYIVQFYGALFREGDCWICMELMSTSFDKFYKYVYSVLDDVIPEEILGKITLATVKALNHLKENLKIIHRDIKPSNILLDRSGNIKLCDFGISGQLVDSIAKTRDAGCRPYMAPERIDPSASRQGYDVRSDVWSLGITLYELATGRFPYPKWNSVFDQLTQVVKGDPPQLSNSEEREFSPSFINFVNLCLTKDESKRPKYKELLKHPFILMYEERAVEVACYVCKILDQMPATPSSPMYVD

[6] = target: IKK epsilon/TBK1 (Homo sapiens) (UniProt Q14164+Q9UHD2); experiment: Inhibition of IKKepsilon/TBK1 in human PC3 cell lysates at 10 uM using desthiobiotin-tagged ATP probe AX9989 followed by trypsinization by LC/MS analysis; type: protein-complex assay
[7] = target: AMPK alpha1/alpha2 (Homo sapiens) (UniProt P54646+Q13131); experiment: Inhibition of AMPKalpha1/AMPKalpha2 in human PC3 cell lysates at 10 uM using desthiobiotin-tagged ATP probe AX9989 followed by trypsinization by LC/MS analysis; type: protein-complex assay
[8] = target: Macrophage-stimulating protein receptor (Homo sapiens) (UniProt Q04912); experiment: Inhibition of RON in human PC3 cell lysates at 10 uM using desthiobiotin-tagged ATP probe AX9989 followed by trypsinization by LC/MS analysis
[9] = target: T3, Serine/threonine-protein kinase 3 (Homo sapiens) (UniProt Q13188); experiment: Inhibition of MST2 in human PC3 cell lysates at 10 uM using desthiobiotin-tagged ATP probe AX9989 followed by trypsinization by LC/MS analysis
T3 sequence (whole entry): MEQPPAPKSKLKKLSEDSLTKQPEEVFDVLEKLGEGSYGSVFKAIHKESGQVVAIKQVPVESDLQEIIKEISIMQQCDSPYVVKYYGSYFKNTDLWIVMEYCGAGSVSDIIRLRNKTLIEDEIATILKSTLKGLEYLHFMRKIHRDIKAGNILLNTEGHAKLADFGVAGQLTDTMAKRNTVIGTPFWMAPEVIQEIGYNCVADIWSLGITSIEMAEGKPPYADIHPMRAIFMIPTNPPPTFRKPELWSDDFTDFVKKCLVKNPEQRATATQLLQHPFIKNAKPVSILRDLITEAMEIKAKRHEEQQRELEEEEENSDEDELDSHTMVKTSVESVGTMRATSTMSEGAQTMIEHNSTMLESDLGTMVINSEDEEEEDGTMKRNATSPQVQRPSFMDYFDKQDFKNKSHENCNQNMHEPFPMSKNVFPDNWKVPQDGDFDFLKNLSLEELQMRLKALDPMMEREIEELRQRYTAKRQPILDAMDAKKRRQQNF

Chain of Mitogen-activated protein kinase 11 (Homo sapiens) (Q15759 whole entry): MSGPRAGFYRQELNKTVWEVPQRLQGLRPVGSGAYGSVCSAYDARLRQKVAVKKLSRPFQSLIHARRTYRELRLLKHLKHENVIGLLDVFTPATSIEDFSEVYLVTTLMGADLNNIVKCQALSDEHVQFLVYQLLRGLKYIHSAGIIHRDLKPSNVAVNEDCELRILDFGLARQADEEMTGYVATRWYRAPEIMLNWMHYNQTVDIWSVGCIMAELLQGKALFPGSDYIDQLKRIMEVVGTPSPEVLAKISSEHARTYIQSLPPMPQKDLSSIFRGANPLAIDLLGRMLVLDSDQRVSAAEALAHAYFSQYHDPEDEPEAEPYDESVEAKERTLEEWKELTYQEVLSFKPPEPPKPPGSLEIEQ
Chain of Macrophage-stimulating protein receptor (Homo sapiens) (Q04912 25-304 limits assumed): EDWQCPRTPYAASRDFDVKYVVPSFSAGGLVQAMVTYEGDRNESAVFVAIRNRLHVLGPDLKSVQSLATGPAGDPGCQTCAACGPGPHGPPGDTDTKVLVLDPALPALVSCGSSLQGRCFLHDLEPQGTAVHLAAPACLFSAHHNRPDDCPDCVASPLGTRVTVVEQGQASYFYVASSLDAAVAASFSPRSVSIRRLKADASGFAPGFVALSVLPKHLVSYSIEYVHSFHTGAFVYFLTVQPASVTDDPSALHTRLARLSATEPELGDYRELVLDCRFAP
Chain of Macrophage-stimulating protein receptor (Homo sapiens) (Q04912 310-1400 limits assumed): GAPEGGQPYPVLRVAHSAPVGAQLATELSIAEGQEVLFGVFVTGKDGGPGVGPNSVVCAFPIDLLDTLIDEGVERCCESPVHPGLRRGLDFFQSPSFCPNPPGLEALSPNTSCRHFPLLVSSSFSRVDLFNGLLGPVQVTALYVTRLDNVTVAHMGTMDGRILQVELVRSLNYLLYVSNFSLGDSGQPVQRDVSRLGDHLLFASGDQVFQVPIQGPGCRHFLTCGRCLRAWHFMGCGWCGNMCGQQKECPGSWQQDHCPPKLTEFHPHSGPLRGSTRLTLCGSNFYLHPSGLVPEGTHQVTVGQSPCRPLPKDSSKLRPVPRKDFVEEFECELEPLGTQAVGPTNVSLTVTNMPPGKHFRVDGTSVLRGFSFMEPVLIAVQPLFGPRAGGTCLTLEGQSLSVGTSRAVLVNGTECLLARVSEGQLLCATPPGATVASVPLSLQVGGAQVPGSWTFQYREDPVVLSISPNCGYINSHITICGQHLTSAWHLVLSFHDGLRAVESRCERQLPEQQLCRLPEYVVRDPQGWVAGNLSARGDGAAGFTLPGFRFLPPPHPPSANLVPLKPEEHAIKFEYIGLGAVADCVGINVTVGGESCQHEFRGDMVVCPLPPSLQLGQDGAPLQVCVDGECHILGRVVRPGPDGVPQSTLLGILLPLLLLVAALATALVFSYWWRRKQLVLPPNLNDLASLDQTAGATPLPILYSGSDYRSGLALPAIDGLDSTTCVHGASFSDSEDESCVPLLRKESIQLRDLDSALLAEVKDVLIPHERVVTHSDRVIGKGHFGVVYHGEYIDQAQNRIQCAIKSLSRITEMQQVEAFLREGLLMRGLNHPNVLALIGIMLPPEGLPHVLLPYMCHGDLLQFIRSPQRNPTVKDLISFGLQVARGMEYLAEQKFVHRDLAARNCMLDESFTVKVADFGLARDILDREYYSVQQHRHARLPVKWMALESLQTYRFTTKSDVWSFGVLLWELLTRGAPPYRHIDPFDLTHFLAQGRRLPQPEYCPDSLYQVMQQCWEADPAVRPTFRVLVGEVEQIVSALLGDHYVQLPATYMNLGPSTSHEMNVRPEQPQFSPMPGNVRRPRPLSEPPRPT
Chain of AMPK alpha1/alpha2 (Homo sapiens) (P54646 whole entry, looked up): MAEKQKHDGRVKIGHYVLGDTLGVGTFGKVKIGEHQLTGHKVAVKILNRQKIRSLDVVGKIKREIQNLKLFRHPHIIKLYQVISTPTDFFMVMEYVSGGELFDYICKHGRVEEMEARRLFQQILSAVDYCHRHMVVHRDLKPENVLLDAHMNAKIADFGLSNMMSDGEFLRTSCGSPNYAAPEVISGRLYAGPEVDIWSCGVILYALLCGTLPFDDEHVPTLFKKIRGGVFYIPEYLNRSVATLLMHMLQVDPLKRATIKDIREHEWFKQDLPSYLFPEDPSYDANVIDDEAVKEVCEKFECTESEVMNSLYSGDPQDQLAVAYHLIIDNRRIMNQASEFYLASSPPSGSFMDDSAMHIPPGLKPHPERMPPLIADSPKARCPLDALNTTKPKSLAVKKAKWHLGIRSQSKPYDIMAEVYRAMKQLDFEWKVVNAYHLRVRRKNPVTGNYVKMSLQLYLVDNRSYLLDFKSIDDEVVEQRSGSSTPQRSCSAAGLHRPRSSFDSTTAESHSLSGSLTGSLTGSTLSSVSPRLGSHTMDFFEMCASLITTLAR
Chain of AMPK alpha1/alpha2 (Homo sapiens) (Q13131 whole entry, looked up): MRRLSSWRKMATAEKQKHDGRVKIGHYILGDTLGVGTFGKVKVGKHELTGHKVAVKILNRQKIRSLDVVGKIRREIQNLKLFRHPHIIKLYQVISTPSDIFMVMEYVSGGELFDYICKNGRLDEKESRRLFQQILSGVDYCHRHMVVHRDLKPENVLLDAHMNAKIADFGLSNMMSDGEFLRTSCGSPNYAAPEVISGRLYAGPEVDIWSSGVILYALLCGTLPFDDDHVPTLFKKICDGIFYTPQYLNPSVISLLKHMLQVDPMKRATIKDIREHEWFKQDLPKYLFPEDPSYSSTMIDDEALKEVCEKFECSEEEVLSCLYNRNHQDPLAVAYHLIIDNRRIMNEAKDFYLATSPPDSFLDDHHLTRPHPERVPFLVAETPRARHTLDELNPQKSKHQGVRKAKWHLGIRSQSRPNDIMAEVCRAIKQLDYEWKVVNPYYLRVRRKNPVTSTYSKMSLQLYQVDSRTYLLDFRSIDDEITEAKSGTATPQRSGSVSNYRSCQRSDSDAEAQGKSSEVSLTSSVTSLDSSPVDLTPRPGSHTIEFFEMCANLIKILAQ
Chain of Serine/threonine-protein kinase Nek7 (Homo sapiens) (Q8TDX7 whole entry, looked up): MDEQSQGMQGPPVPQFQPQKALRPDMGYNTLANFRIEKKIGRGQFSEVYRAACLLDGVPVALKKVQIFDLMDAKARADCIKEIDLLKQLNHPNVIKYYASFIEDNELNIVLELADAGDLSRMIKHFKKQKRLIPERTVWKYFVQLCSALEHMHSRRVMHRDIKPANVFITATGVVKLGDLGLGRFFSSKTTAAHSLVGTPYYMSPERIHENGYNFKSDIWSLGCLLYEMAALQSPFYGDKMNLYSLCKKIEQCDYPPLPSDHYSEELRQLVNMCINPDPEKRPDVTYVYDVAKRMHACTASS
Chain of Rho-associated protein kinase 2 (Homo sapiens) (O75116 whole entry, looked up): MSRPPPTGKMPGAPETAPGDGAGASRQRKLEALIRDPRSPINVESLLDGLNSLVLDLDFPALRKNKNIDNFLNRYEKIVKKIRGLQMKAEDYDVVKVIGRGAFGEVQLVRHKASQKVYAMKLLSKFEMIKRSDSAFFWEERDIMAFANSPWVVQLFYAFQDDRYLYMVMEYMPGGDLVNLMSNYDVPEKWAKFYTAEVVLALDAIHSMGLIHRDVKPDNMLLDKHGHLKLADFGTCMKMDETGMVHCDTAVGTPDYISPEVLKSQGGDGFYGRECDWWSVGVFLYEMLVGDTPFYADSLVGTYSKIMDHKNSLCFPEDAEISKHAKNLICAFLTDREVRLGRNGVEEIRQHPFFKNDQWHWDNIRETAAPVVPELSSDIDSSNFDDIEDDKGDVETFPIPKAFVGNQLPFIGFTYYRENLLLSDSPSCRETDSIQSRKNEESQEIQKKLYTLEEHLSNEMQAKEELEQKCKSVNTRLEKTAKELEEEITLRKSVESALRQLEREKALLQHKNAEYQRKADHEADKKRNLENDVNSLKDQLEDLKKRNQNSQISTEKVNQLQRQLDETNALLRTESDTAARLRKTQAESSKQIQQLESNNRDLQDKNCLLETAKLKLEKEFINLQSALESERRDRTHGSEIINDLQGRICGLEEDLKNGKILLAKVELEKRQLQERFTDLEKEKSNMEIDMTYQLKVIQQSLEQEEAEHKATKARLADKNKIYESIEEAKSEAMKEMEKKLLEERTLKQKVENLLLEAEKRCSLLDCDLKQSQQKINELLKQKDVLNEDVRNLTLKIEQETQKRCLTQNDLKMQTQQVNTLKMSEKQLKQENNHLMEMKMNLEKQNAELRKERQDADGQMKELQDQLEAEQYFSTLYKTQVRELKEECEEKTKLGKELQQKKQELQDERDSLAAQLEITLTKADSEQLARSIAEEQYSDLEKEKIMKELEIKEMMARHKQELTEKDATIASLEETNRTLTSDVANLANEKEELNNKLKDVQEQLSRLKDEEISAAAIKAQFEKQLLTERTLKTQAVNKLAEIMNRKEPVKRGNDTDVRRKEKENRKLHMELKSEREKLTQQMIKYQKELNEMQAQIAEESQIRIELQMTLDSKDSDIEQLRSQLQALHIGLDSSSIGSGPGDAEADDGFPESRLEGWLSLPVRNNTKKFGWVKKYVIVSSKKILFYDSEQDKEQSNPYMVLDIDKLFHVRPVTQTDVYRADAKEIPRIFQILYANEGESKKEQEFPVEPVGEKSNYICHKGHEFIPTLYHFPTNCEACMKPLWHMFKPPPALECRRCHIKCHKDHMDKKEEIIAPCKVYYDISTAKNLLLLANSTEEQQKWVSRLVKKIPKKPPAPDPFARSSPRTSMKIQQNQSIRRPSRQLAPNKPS

Row | inhibition [1] | inhibition [2] | inhibition [3] | inhibition [4] | inhibition [5] | inhibition [6] | inhibition [7] | inhibition [8] | inhibition [9] | SMILES
1 | < 35% | < 35% | < 35% | < 35% | < 35% | < 35% | 40.1% | < 35% | < 35% | O=C(N[C@H](CO)c1ccccc1)c1ccc2nc(N[C@H]3CC[C@H](O)CC3)c3nccn3c2c1
2 | < 35% | < 35% | < 35% | < 35% | < 35% | < 35% | < 35% | < 35% | < 35% | CC(C)(NC(=O)c1ccc2nc(N[C@H]3CC[C@H](O)CC3)c3nccn3c2c1)c1ccccc1
3 | < 35% | < 35% | < 35% | < 35% | < 35% | < 35% | < 35% | < 35% | < 35% | NC(=O)c1ccc2nc(N[C@H]3CC[C@H](O)CC3)c3nccn3c2c1
4 | < 35% | < 35% | < 35% | < 35% | < 35% | < 35% | < 35% | < 35% | < 35% | CCC[C@@H](NC(=O)c1ccc2nc(N[C@H]3CC[C@H](O)CC3)c3nccn3c2c1)c1ccccc1
5 | < 35% | < 35% | < 35% | < 35% | < 35% | 38.7% | 43.2% | < 35% | < 35% | C[C@@H](NC(=O)c1ccc2nc(N[C@H]3CC[C@H](O)CC3)c3nccn3c2c1)c1ccccc1
6 | < 35% | < 35% | < 35% | < 35% | < 35% | < 35% | < 35% | < 35% | < 35% | O=C(NC1(c2ccccc2)CC1)c1ccc2nc(N[C@H]3CC[C@H](O)CC3)c3nccn3c2c1
7 | < 35% | < 35% | < 35% | < 35% | < 35% | < 35% | < 35% | < 35% | < 35% | CC[C@@H](NC(=O)c1ccc2nc(N[C@H]3CC[C@H](O)CC3)c3nccn3c2c1)c1ccccc1
8 | < 35% | < 35% | < 35% | < 35% | < 35% | < 35% | < 35% | < 35% | < 35% | O=C(NC1(Cc2ccc(F)cc2)CC1)c1ccc2nc(N[C@H]3CC[C@H](O)CC3)c3nccn3c2c1
9 | < 35% | < 35% | < 35% | < 35% | < 35% | < 35% | < 35% | < 35% | < 35% | C[C@H](NC(=O)c1ccc2nc(N[C@H]3CC[C@H](O)CC3)c3nccn3c2c1)c1ccccc1
10 | < 35% | < 35% | < 35% | < 35% | < 35% | < 35% | < 35% | < 35% | < 35% | O=C(NC1(c2ccccc2)CCC1)c1ccc2nc(N[C@H]3CC[C@H](O)CC3)c3nccn3c2c1
11 | < 35% | < 35% | < 35% | < 35% | < 35% | < 35% | < 35% | < 35% | < 35% | O=C(NC1(c2ccc(F)cc2)CC1)c1ccc2nc(N[C@H]3CC[C@H](O)CC3)c3nccn3c2c1
12 | < 35% | < 35% | < 35% | < 35% | < 35% | < 35% | < 35% | < 35% | < 35% | O=C(O)c1ccc2nc(N[C@H]3CC[C@H](O)CC3)c3nccn3c2c1

— ChEMBL document CHEMBL2417377, “Hit-to-lead optimization and kinase selectivity of imidazo[1,2-a]quinoxalin-4-amine derived JNK1 inhibitors” (Bioorg Med Chem Lett, 2013)
